According to US5231182A, “Method of making certain aryl containing amides” (American Cyanamid Company, priority 1991, dated 1993):
Where a name gives a salt, the structure may show the parent alone.

Assays:
[1] = test system: Endotoxin induced shock and mortality; assay: Endotoxin induced shock and mortality in mice: low dose, chronic mouse endotoxemia; format: in vivo, Male Balb/c mice
From the text: Endotoxin administration produces a shock-like state characterized by vascular permeability changes, hypotension, neutropenia, thrombocytopenia,multiple organ damage and death. The major mediators released after endotoxin injection are TNF (tumor necrosis factor), PAF (platelet activating factor) and […] (interleukin I). PAF administration mimics the signs and symptoms of endotoxin induced shock and death and endotoxin also induces the release of PAF. Therefore, the effects of endotoxin should be blocked with a PAF antagonist.
Male Balb/c mice (approximately 20 g) are obtained from Charles River Laboratories and used after a one-two week acclimation period. Animals are given (ip) test compound dissolved in saline or water (sonicated and heated) at different time intervals prior to and after the ip injection of endotoxin (usually 2 hours before LPS endotoxin, and 3-4 hours after). Sigma E. Coli endotoxin, 0111:B4, phenol extraction, catalog #L2630 is used for these studies.
For the chronic endotoxin shock model, a lower dose of endotoxin is administered (generally 15 to 20 mg/kg i.p). This dose gives an LD80 in two to four days following LPS administration. Test compounds are given 2 hours before LPS and 3-4 hours after on the first day, followed by 3 or 4 consecutive days of BID dosing. The number of survivors in each group is recorded each day for a period of 5 to 7 days.
Effect of Compounds Given i.p. in Low Dose, Chronic Mouse Endoxemia

PAF induced lethality = PAF induced lethality in mice; format: in vivo; conditions: PAF 150 μg/kg IV
Protocol: PAF given I.V. to mice causes an immediate hypotensive shock leading to death in 1 hour or less. Compounds are given intraperitoneally or P.O. at various times before the PAF challenge. Animals alive after 2 hours are counted and the activity of test compounds expressed as % survival corrected for any control (saline treated) animals which survived the PAF challenge.
Effect of Compound Given I.V. or P.O. in Protecting
Mice from a Lethal Challenge of PAF^a
^a lethal challenge of PAF is 150 μg/kg IV.

PAF receptor = molecular target: T1, PAF receptor (Oryctolagus cuniculus, UniProt G1TEI7); assay: Platelet Activating Factor antagonism in vitro: inhibition of PAF induced platelet aggregation in rabbit platelet rich plasma; format: cell-based, rabbit (New Zealand White); conditions: dose .00001 M, PAF chall conc 5.0000E-08 M
T1 construct: centrifuged at 800 rpm for 10-15 minutes at room temperature to recover the platelet rich plasma (PRP); endogenous in cells; host or cells: platelets in citrated platelet rich plasma from male New Zealand White rabbits (Oryctolagus cuniculus)
Protocol: Test compounds are evaluated as PAF receptor antagonists in vitro by measuring inhibition of PAF (platelet activating factor) induced platelet aggregation. Platelet aggregation is measured by a modification of the method described in […], et. al., J. Med. Chem., 27 1174, 1984. […] All syringes and pipets are plastic. The blood is gently mixed and immediately centrifuged at 800 rpm for 10-15 minutes at room temperature to recover the platelet rich plasma (PRP). Platelet poor plasma (PPP) is prepared by centrifuging PRP at 2800 rpm for 10 minutes at room temperature. Dilutions (1:3000) of PRP in Isoton® diluent are made and platelet counts are determined on a Coulter Thrombocounter which is standardized with platelet reference standards (Interscience Platelet Control, Portland, Oreg.). PRP platelet counts are adjusted to approximately 400,000-500,000 platelets/μl by the addition of PPP. L-PAF (Platelet Activating Factor) is obtained from Calbiochem. […] All solutions are made up in plastic tubes, stored on ice and protected from heat and light. Solutions are prepared fresh or frozen at -20° C. and used within 48 hours. Incubation mixtures consisted of 400 μl PRP, 50 μl of saline diluent or test compound and 50 μl of PAF agonist. More specifically, 400 μl of PRP is stabilized in a cuvette for 1-2 minutes at 37° C. in the aggregometer to achieve a stable baseline, then 50 μl of saline or test compound is added and incubated for 5 minutes before addition of the challenge concentration of PAF. A submaximal concentration is determined from the dose response curve for PAF for that experiment. In general, the challenge concentration is 5E-8 or IE-7M. Aggregation is monitored for 5 minutes. Samples containing test compound or diluent are run simultaneously for comparison. Test compounds are initially evaluated at a screening concentration of 1E-5M. […] The recording equipment consists of a dual channel Chronolog aggregometer connected to a dual channel 10MV full scale deflection Omniscribe chart recorder (Houston Instruments). The chart recorder is calibrated daily with the use of a suspension of Bio-Rad latex beads (S-X 12 400 mesh) which has a density slightly greater than rabbit PRP. […] These limits defined a full scale deflection. The aggregation traces are analyzed by a digitizing method (C. Kohler and B. Zoltan, J. Pharm. Methods, 12, 113, 1984) with x, y coordinate data stored in a computer file. A suitable program computes parameters of interest such as the magnitude of aggregation. | ^a dose of compound that gives the indicated % inhibition. | ^b the % inhibition of PAF induced platelet aggregation. | ^c the molar concentration of compound that will inhibit 50% of the | platelet aggretation induced by PAF given at the indicated PAF challenge | concentration.

T1 sequence (G1TEI7 1-342): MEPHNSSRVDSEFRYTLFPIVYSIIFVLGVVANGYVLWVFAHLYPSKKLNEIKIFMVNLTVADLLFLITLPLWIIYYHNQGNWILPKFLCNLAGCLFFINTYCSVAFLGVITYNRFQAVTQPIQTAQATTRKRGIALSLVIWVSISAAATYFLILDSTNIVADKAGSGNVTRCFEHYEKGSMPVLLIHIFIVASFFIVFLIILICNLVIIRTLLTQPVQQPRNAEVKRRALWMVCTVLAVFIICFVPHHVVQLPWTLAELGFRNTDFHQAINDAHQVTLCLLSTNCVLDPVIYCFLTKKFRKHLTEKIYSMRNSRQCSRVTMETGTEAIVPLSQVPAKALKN

| SMILES | % Survival ([1]; day 0, dose 10 mg/kg i.p.) | No Surv./tot. ([1]; day 0, dose 10 mg/kg i.p.) | % Survival ([1]; day 0, dose 20 mg/kg i.p.) | No Surv./tot. ([1]; day 0, dose 20 mg/kg i.p.) | % Survival ([1]; day 1, dose 10 mg/kg i.p.) | No Surv./tot. ([1]; day 1, dose 10 mg/kg i.p.) | % Survival ([1]; day 1, dose 20 mg/kg i.p.) | No Surv./tot. ([1]; day 1, dose 20 mg/kg i.p.) | % Survival ([1]; day 2, dose 10 mg/kg i.p.) | No Surv./tot. ([1]; day 2, dose 10 mg/kg i.p.) | % Survival ([1]; day 2, dose 20 mg/kg i.p.) | No Surv./tot. ([1]; day 2, dose 20 mg/kg i.p.) | % Survival ([1]; day 3, dose 10 mg/kg i.p.) | No Surv./tot. ([1]; day 3, dose 10 mg/kg i.p.) | % Survival ([1]; day 3, dose 20 mg/kg i.p.) | No Surv./tot. ([1]; day 3, dose 20 mg/kg i.p.) | % Survival ([1]; day 4, dose 10 mg/kg i.p.) | No Surv./tot. ([1]; day 4, dose 10 mg/kg i.p.) | % Survival ([1]; day 4, dose 20 mg/kg i.p.) | No Surv./tot. ([1]; day 4, dose 20 mg/kg i.p.) | other results |
| --- | --- | --- | --- | --- | --- | --- | --- | --- | --- | --- | --- | --- | --- | --- | --- | --- | --- | --- | --- | --- | --- |
| CCCCCCCCCCCCCCOc1ccc(CN(C(=O)NC)c2cccc(C[n+]3csc(C)c3)c2)cc1.[Br-] [5-Methyl-3-[[3-[[(methylamino)carbonyl]-[[4-(tetradecyloxy)phenyl]methyl]amino]phenyl]methyl]thiazolium bromide] | 100% | 30/30 | 100% | 30/30 | 80% | 24/30 | 90% | 27/30 | 46% | 14/30 | 23% | 7/30 | 46% | 14/30 | 20% | 6/30 | 46% | 14/30 | 20% | 6/30 | % Survival ([1]; day 5, dose 10 mg/kg i.p.): 46%; No Surv./tot. ([1]; day 5, dose 10 mg/kg i.p.): 14/30; % Survival ([1]; day 5, dose 20 mg/kg i.p.): 20%; No Surv./tot. ([1]; day 5, dose 20 mg/kg i.p.): 6/30; No Surv./tot. ([1]; day 6, dose 10 mg/kg i.p.): 14/30; No Surv./tot. ([1]; day 6, dose 20 mg/kg i.p.): 6/30; % Survival ([1]; day 7, dose 10 mg/kg i.p.): 46%; No Surv./tot. ([1]; day 7, dose 10 mg/kg i.p.): 14/30; % Survival ([1]; day 7, dose 20 mg/kg i.p.): 20%; No Surv./tot. ([1]; day 7, dose 20 mg/kg i.p.): 6/30 |
| CCCCCCCCCCCCCCOc1ccc(CC(=O)Nc2ccc(C[n+]3csc(C)c3)cc2)cc1.[Br-] [5-Methyl-3-[[4-[[[4-(tetradecyloxy)phenyl]acetyl]amino]phenyl]methyl]thiazolium bromide] | 100% | 30/30 | 100% | 30/30 | 100% | 30/30 | 90% | 27/30 | 80% | 24/30 | 60% | 18/30 | 80% | 24/30 | 60% | 18/30 | 80% | 24/30 | 60% | 18/30 | % Survival (PAF induced lethality; P.O. 5 mg/kg): 32%; % Survival (PAF induced lethality; P.O. 20 mg/kg): 32%; % INH (inhibition of PAF induced platelet aggregation) (PAF receptor): 100.0%; % Survival ([1]; day 5, dose 10 mg/kg i.p.): 80%; No Surv./tot. ([1]; day 5, dose 10 mg/kg i.p.): 24/30; % Survival ([1]; day 5, dose 20 mg/kg i.p.): 60%; No Surv./tot. ([1]; day 5, dose 20 mg/kg i.p.): 18/30; % Survival ([1]; day 6, dose 10 mg/kg i.p.): 80%; No Surv./tot. ([1]; day 6, dose 10 mg/kg i.p.): 24/30; % Survival ([1]; day 6, dose 20 mg/kg i.p.): 56%; No Surv./tot. ([1]; day 6, dose 20 mg/kg i.p.): 17/30 |
| CCCCCCCCCCCCCCOc1ccc(CC(=O)Nc2cccc(-n3ccnc3C)c2)cc1 [N-[3-(2-Methyl-1H-imidazol-1-yl)phenyl-4-(tetradecyloxy)benzeneacetamidemonohydrochloride] | – | – | – | – | – | – | – | – | – | – | – | – | – | – | – | – | – | – | – | – | % INH (inhibition of PAF induced platelet aggregation) (PAF receptor; monohydrochloride): 39.0% |
